Data published in US7939074B2, “Combination of an anti-EP-CAM antibody with a chemotherapeutic agent” (GlaxoSmithKline LLC, priority 1999, dated 2011).
Counter-ions that a name gives are not always drawn.

Columns and labels:
[1] = tested on: Human colon adenocarcinoma (HT-29) tumours; experiment: Localization of 177Lu-labelled humanised 323/A3 IgG4cys-TMT to HT-29 xenografts after drug pre-treatment; assay type: in vivo, female CD-1 nude mice; conditions: HT-29 xenograft mice; NAVELBINE 28 mg/kg i.v. or 5-FU 20 mg/kg i.p. on days 1 and 5; labelled antibody on day 6
Description: Human colon adenocarcinoma (HT-29) tumours were initiated by subcutaneous implantation into female CD-1 nude mice (Charles River). When the tumours reached 200-300 mg, animals were divided into groups of five. NAVELBINE® was injected intravenously at a dosage of 28 mg/kg on days 1 and 5. A control group was dosed with 5-fluorouracil (5-FU) intraperitoneally at 20 mg/kg on days 1 and 5. On day 6, humanised 323/A3 IgG4cys-TMT (a humanized monoclonal antibody chelator conjugate with specificity for the Ep-CAM antigen) was labelled with lutetium-177 and injected intravenously via the lateral tail vein. Each mouse received […]/2.09 μCi lutetium-177/0.2 ml injection. Blood, spleen, liver, lung, kidney, femur and tumour were harvested on days 1, 3 and 5 post-antibody for direct gamma counting (see FIG. 5 for results).

[2] = tested on: Ep-CAM antigen on adenocarcinoma cells; experiment: Quantification of Ep-CAM antigen expression by binding of fluorescein-conjugated 323/A3 versus calibrated microbead standards; assay type: cell-based, human; conditions: adenocarcinoma cells exposed to drugs, Example 2 / FIG. 2, versus media
Description: (§1) Populations of PC-3 prostatic adenocarcinoma cells were evaluated for distribution in G0/G1, S, and G2/M phases of the cell cycle as well as Ep-CAM expression. Cells were gently trypsinized and mechanically detached from the culture flasks and resuspended in calcium and magnesium-free phosphate-buffered saline containing bovine serum albumin and NaN3. Exactly 2×10^5 cells were stained with FITC-323/A3 murine IgG antibody or FITC-murine IgG (control). Cells were fixed with cold paraformaldehyde, then permeabilized for DNA staining with Tween-20. Cellular DNA was stained with propidium iodide and RNase A. Listmode data were acquired on a FACScan flow cytometer (Becton Dickinson Immunocytometry Systems) equipped with a 488 nm laser using Cell Fit software. Cell cycle analysis was done using SOBR modelling (where possible, otherwise manual estimations were employed) on Cell Fit. Ep-CAM antigen expression as detected by 323/A3 binding was evaluated separately using histogram analysis in WINLIST™ (Verity Software House).
(§2) Subconfluent cells were exposed to NAVELBINE® or TAXOL® for up to 24 hours, then washed and exposed to cisplatin or carboplatin, respectively, overnight. Cells were exposed to 5FU for 24 hours, and for 2-5 days to the interferons. Cells were washed and cultured for another 2-5 days prior to analysis for antigen expression and cell cycle status as described in Example 1. Antigen expression was quantified by comparison of the binding of fluorescein-conjugated 323/A3 to cultured cells with binding to calibrated microbead standards.
The expression of Ep-CAM antigen was quantified on a variety of adenocarcinoma cell lines as well as primary cultures of normal human cells. Cultured subconfluent cells were exposed sequentially to media, or to 30 nM NAVELBINE® followed by 5 μM cisplatin (NVB+CDDP), or to 80 nM TAXOL® followed by 100 μM carboplatin (TAX+CPBDA). Cells were washed with media and cultured for another 2-5 days prior to analysis for antigen expression as described in Examples 1 and 2.

adenocarcinoma cells = experiment: Cell cycle analysis (propidium iodide flow cytometry) of drug-exposed adenocarcinoma cell lines; assay type: cell-based, human; conditions: adenocarcinoma cell line; NVB 30 nM then CDDP 5 μM; TAX 80 nM then CPBDA 100 μM; interferons 100 U/ml; media control 6.3%
Description: as §1, §2

[3] = tested on: HT29 adenocarcinoma cells; experiment: Cell cycle arrest in drug-treated HT29 cells; assay type: cell-based, human; conditions: HT29 cells cultured with drugs; control cells 21%
Description: as §1, with “Cellular DNA was stained with propidium iodide and RNase A. Listmode data were acquired on a FACScan flow cytometer (Becton Dickinson Immunocytometry Systems) equipped with a 488 nm laser using Cell Fit software. Cell cycle analysis was done using SOBR modelling (where possible, otherwise manual estimations were employed) on Cell Fit.” left out
Subconfluent cells were exposed to NAVELBINE® or TAXOL® for up to 24 hours, then washed and exposed to cisplatin or carboplatin, respectively, overnight. […] Antigen expression was quantified by comparison of the binding of fluorescein-conjugated 323/A3 to cultured cells with binding to calibrated microbead standards.
The binding of PANOREX®, a related murine monoclonal antibody with specificity for the Ep-CAM antigen, was evaluated after a 15 minute incubation with HT29 adenocarcinoma cells which had been cultured with NAVELBINE® plus Cisplatin or with TAXOL® as previously described. […]

[4] = tested on: HT29 adenocarcinoma cells; experiment: Binding of PANOREX to drug-treated HT29 cells; assay type: cell-based, human; conditions: 15 minute incubation with PANOREX after culture with drugs
Description: as §2
The binding of PANOREX®, a related murine monoclonal antibody with specificity for the Ep-CAM antigen, was evaluated after a 15 minute incubation with HT29 adenocarcinoma cells which had been cultured with NAVELBINE® plus Cisplatin or with TAXOL® as previously described. A significant increase (34%) in antibody binding was seen on the cells treated with NAVELBINE® plus Cisplatin; 82% of these cells were arrested in S or G2/M cycle phase compared to 21% of the control cells.

CCC1=C[C@@H]2CN(C1)Cc1c([nH]c3ccccc13)[C@@](C(=O)OC)(c1cc3c(cc1OC)N(C)[C@H]1[C@@](O)(C(=O)OC)[C@H](OC(C)=O)[C@]4(CC)C=CCN5CC[C@]31[C@@H]54)C2 (relative stereo) [NAVELBINE®, 3′,4′-didehydro-4′-deoxy-C′-norvincaleukoblastine [R-(R*,R*)-2,3-dihydroxybutanedioate (1:2)(salt)]]
antibody targeting to Ep-CAM positive tumours [1]: increases antibody targeting

O=c1[nH]cc(F)c(=O)[nH]1 [5FU, 5-Fluorouracil]
Ep-CAM antigen expression [2]: not significantly increased
cells in S and G2/M phases combined (adenocarcinoma cells): 7.9%

CC(=O)O[C@H]1C(=O)[C@@]2(C)[C@H]([C@H](OC(=O)c3ccccc3)[C@]3(O)C[C@H](OC(=O)[C@H](O)[C@@H](NC(=O)c4ccccc4)c4ccccc4)C(C)=C1C3(C)C)[C@]1(OC(C)=O)CO[C@@H]1C[C@@H]2O [TAXOL®, 5β,20 epoxy-1,2α,4,7β,10β,13α-hexahydroxytax-11-en-9-one 4,10-diacetate 2-benzoate 13-ester with (2R,3S)-N-benzoyl-3-phenylisoserine]
cells arrested in S or G2/M cycle phase [3]: 57%
increase in antibody binding (PANOREX) [4]: 8%

IFN-α
Ep-CAM antigen expression [2]: not significantly increased
cells in S and G2/M phases combined (adenocarcinoma cells): 12%

IFN-γ: interferon-gamma, used at 100 U/ml
Ep-CAM antigen expression [2]: not significantly increased
cells in S and G2/M phases combined (adenocarcinoma cells): 11.5%
